Data: patent publication US20240317735A1, “HYDROISOQUINOLINE OR HYDRONAPHTHYRIDINE COMPOUNDS FOR THE TREATMENT OF AUTOIMMUNE DISEASE” (Hoffmann-La Roche Inc., priority 2020, published 2024)

Target: T1, hERG channel (Homo sapiens, UniProt Q12809)
T1 construct: expressed in transfected cells; host or cells: CHO (CHOhERG)
Assay: hERG channel inhibition assay (patch-clamp, CHOhERG cells)
Assay type: cell-based
Details: for IC50 / IC20: CHOhERG cells, whole-cell patch-clamp; for IC20: human, CHO cells stably expressing hERG (CHOhERG); for hERG IC20/TLR7 IC50 / hERG IC20/TLR8 IC50 / hERG IC20/TLR9 IC50: safety ratio; for hERG IC20/TLR7 IC50: hERG IC20 over HEK/hTLR7 IC50; for hERG IC20/TLR8 IC50: hERG IC20 over HEK/hTLR8 IC50; for hERG IC20/TLR9 IC50: hERG IC20 over HEK/hTLR9 IC50
Method: The hERG K^+ channels were cloned in humans and stably expressed in a CHO (Chinese hamster ovary) cell line. CHOhERG cells were used for patch-clamp (voltage-clamp, whole-cell) experiments. Cells were stimulated by a voltage pattern to activate hERG channels and conduct IKhERG currents (rapid delayed outward rectifier potassium current of the hERG channel). After the cells were stabilized for a few minutes, the amplitude and kinetics of IKhERG were recorded at a stimulation frequency of 0.1 Hz (6 bpm). Thereafter, the test compound was added to the preparation at increasing concentrations. For each concentration, an attempt was made to reach a steady-state effect, usually, this was achieved within 3-10 min at which time the next highest concentration was applied. The amplitude and kinetics of IKhERG are recorded in each concentration of the drug which were compared to the control values (taken as 100%). (references: Redfern W S, Carlsson L, Davis A S, Lynch W G, MacKenzie I, Palethorpe S, Siegl P K, Strang I, Sullivan A T, Wallis R, Camm A J, Hammond T G. 2003; Relationships between preclinical cardiac electrophysiology, clinical QT interval prolongation and torsade de pointes for a broad range of drugs: evidence for a provisional safety margin in drug development. Cardiovasc. Res. 58:32-45, Sanguinetti MC, Tristani-Firouzi M. 2006; hERG potassium channels and cardiac arrhythmia. Nature 440:463-469, Webster R, Leishman D, Walker D. 2002; Towards a drug concentration effect relationship for QT prolongation and torsades de pointes. Curr. Opin. Drug Discov. Devel. 5:116-26).

T1 sequence (Q12809 whole entry): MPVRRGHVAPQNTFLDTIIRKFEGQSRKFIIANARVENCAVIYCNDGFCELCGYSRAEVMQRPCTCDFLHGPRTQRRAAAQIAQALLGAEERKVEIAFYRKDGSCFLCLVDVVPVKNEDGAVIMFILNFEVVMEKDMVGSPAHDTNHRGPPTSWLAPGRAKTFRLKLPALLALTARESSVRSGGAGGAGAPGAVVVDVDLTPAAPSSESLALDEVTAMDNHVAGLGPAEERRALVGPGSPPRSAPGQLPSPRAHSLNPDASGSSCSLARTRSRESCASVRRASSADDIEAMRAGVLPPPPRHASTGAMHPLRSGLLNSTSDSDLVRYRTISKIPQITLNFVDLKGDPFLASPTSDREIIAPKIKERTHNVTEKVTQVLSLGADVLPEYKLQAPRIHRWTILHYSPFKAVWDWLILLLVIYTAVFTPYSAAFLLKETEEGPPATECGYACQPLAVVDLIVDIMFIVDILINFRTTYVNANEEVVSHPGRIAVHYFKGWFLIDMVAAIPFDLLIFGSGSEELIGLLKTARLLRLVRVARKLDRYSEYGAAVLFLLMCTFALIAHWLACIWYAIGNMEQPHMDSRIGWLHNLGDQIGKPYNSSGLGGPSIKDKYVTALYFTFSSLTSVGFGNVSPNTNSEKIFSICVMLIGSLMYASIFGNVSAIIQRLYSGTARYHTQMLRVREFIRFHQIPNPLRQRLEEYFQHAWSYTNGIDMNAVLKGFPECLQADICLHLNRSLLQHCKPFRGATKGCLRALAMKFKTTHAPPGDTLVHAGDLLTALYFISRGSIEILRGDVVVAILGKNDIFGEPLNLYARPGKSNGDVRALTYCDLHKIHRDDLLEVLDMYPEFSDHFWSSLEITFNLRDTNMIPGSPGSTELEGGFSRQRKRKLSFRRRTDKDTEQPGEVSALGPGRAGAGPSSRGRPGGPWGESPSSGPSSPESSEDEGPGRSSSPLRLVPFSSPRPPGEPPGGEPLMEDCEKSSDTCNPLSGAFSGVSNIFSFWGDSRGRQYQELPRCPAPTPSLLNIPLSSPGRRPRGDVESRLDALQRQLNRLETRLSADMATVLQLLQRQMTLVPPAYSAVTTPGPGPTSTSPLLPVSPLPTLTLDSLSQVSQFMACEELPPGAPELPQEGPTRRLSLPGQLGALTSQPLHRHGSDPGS

SMILES | IC50 [µM] | IC20 [µM] | hERG IC20/TLR7 IC50 | hERG IC20/TLR8 IC50 | hERG IC20/TLR9 IC50
C[C@H]1CN(c2ccnc3c2cnn3C)Cc2ccc(OCCN3CCNCC3)cc21 [Example 40, (4R)-4-methyl-2-(1-methylpyrazolo[3,4-b]pyridin-4-yl)-6-(2-piperazin-1-ylethoxy)-3,4-dihydro-1H-isoquinoline] | > 20 | > 10 | >1250.0 | >1428.6 | >30.7
Cc1cc(N2Cc3cnc(OCCN4CCNCC4)cc3[C@@H](C)C2)c2cnn(C)c2n1 [Example 77, (4R)-2-(1,6-dimethylpyrazolo[3,4-b]pyridin-4-yl)-4-methyl-6-(2-piperazin-1-ylethoxy)-3,4-dihydro-1H-2,7-naphthyridine] | > 20 | > 10 | >526.3 | >625.0 | >69.4
C[C@H]1CN(c2ccnc3c2cnn3C)Cc2ccc(O[C@@H]3C[C@H]4CNCCN4C3)cc21 [Example 42, (4R)-4-methyl-2-(1-methylpyrazolo[3,4-b]pyridin-4-yl)-6-[[(7R,8aS)-1,2,3,4,6,7,8,8a-octahydropyrrolo[1,2-a]pyrazin-7-yl]oxy]-3,4-dihydro-1H-isoquinoline] | > 20 | > 10 | >3333.3 | >5000.0 | >25.1
C[C@H]1CN(c2ccnc3c2cnn3C)Cc2ccc(OC[C@@H]3CNCCN3C)cc21 [Example 44, (4R)-4-methyl-2-(1-methylpyrazolo[3,4-b]pyridin-4-yl)-6-[[(2S)-1-methylpiperazin-2-yl]methoxy]-3,4-dihydro-1H-isoquinoline] | > 20 | > 10 | >666.7 | >2000.0 | >42.7
CO[C@@H]1CN(c2ccc3c(c2)[C@@H](C)CN(c2ccnc4c2cnn4C)C3)C[C@H]1N [Example 20, (3R,4R)-4-methoxy-1-[(4R)-4-methyl-2-(1-methylpyrazolo[3,4-b]pyridin-4-yl)-3,4-dihydro-1H-isoquinolin-6-yl]pyrrolidin-3-amine] | > 20 | 6.2 | 2066.7 | 364.7 | 25.9
C[C@H]1CN(c2ccnc3c2cnn3C)Cc2ccc(N3C[C@@]4(CCNC4)CC3=O)cc21 (single isomer, unassigned) [Example 53] | > 20 | > 10 | >555.6 | >1666.7 | >47.6
C[C@H]1CN(c2ccnc3c2cnn3C)Cc2ccc(N3CC4(CNCCO4)C3)cc21 [Example 21, 2-[(4R)-4-methyl-2-(1-methylpyrazolo[3,4-b]pyridin-4-yl)-3,4-dihydro-1H-isoquinolin-6-yl]-5-oxa-2,8-diazaspiro[3.5]nonane] | > 20 | > 10 | >1428.6 | >714.3 | >26.9
Cc1cc(N2Cc3cnc(N4CC[C@@H](N)[C@H](F)C4)cc3[C@@H](C)C2)c2cnn(C)c2n1 [Example 80, (3R,4R)-3-fluoro-1-[(5R)-7-(1,6-dimethylpyrazolo[3,4-b]pyridin-4-yl)-5-methyl-6,8-dihydro-5H-2,7-naphthyridin-3-yl]piperidin-4-amine] | > 20 | > 10 | >833.3 | >294.1 | >137.0
C[C@H]1CN(c2ccnc3c2cnn3C)Cc2ccc(N3C[C@@H]4CNCCN4C3=O)cc21 [Example 25, (8aS)-2-[(4R)-4-methyl-2-(1-methylpyrazolo[3,4-b]pyridin-4-yl)-3,4-dihydro-1H-isoquinolin-6-yl]-1,5,6,7,8,8a-hexahydroimidazo[1,5-a]pyrazin-3-one] | > 20 | > 10 | >666.7 | >33333.3 | >34.4
Cc1cc(N2Cc3cnc(O[C@@H]4C[C@H]5CNCCN5C4)cc3[C@@H](C)C2)c2cnn(C)c2n1 [Example 76, (4R)-2-(1,6-dimethylpyrazolo[3,4-b]pyridin-4-yl)-4-methyl-6-[[(7R,8aS)-1,2,3,4,6,7,8,8a-octahydropyrrolo[1,2-a]pyrazin-7-yl]oxy]-3,4-dihydro-1H-2,7-naphthyridine] | > 20 | > 10 | >526.3 | >625.0 | >69.4
C[C@H]1CN(c2ccnc3c2cnn3C)Cc2ccc(N3CC4(CCNCC4)CC3=O)cc21 [Example 16, 2-[(4R)-4-methyl-2-(1-methylpyrazolo[3,4-b]pyridin-4-yl)-3,4-dihydro-1H-isoquinolin-6-yl]-2,8-diazaspiro[4.5]decan-3-one] | > 20 | > 10 | >2000.0 | >2500.0 | >158.7
C[C@H]1CN(c2ccnc3c2cnn3C)Cc2ccc(N3CC4(CNC4)CC3=O)cc21 [Example 34, 6-[(4R)-4-methyl-2-(1-methylpyrazolo[3,4-b]pyridin-4-yl)-3,4-dihydro-1H-isoquinolin-6-yl]-2,6-diazaspiro[3.4]octan-7-one] | > 20 | > 10 | >384.6 | >384.6 | >50.5
Cc1cc(N2Cc3ccc(OC[C@H]4CNCCN4)cc3[C@@H](C)C2)c2cnn(C)c2n1 [Example 30, (4R)-2-(1,6-dimethylpyrazolo[3,4-b]pyridin-4-yl)-4-methyl-6-[[(2R)-piperazin-2-yl]methoxy]-3,4-dihydro-1H-isoquinoline] | > 20 | 6.5 | 175.7 | 3250.0 | 73.9
